Columns and labels:
Assay type in all cases: in vivo
Seedling johnsongrass [1] = assay: Pre-emergence herbicide test; conditions: Sorghum halepense, read-out: % plant inhibition (Sejg); for inhibition at 11210 g/ha: 11.21 kg/ha
Procedure: (§1) The tests for pre-emergence herbicide activity are conducted as follows:
(§2) Topsoil is placed in an aluminum pan and compacted to a depth of 0.95 to 1.27 cm from the top of the pan. On the top of the soil is placed a predetermined number of seeds of each of several monocotyledonous and dicotyledonous annual plant species and/or vegetative propagules of various perennial plant species. A known amount of the active ingredient dissolved or suspended in an organic solvent, e.g., acetone, or water as carrier is then applied directly to the seed bed, which is then covered with a layer of untreated topsoil to level fill the pan. After treatment, the pans are moved to a greenhouse bench where they are watered from below as needed to give adequate moisture for germination and growth.
(§3) Approximately 10-14 days (usually 11 days) after seeding and treating, the pans are observed and the results (% inhibition) are recorded.
(§4) Tables 7 and 7A below summarize the results of the pre-emergence herbicidal activity tests of compounds of this invention in weeds. The herbicidal rating shown in these tables is the percent inhibition of each plant species. The plant species usually regarded as weeds which are utilized in one set of tests, the data for which are shown in the tables, are identified by letter headings above the columns in accordance with the following legend: […]

Cocklebur [2] = assay: Pre-emergence herbicide test; conditions: Xanthium strumarium, read-out: % plant inhibition (Cobu); for inhibition at 11210 g/ha: 11.21 kg/ha
Procedure: as §1, §2, §3, §4

Downy Brome [3] = assay: Pre-emergence herbicide test; conditions: Bromus tectorum, read-out: % plant inhibition (Dobr); for inhibition at 11210 g/ha: 11.21 kg/ha
Procedure: as §1, §2, §3, §4

Velvetleaf [4] = assay: Pre-emergence herbicide test; conditions: Abutilon theophrasti, read-out: % plant inhibition (Vele); for inhibition at 11210 g/ha: 11.21 kg/ha
Procedure: as §1, §2, §3, §4

Wild buckwheat [5] = assay: Pre-emergence herbicide test; conditions: Fallopia convolvulus, read-out: % plant inhibition (Wibw); for inhibition at 11210 g/ha: 11.21 kg/ha
Procedure: as §1, §2, §3, §4

Annual bluegrass [6] = assay: Pre-emergence herbicide test; conditions: read-out: % plant inhibition (Anbg); for inhibition at 11210 g/ha: 11.21 kg/ha
Procedure: as §1, §2, §3, §4

Morningglory [7] = assay: Pre-emergence herbicide test; conditions: Ipomoea, read-out: % plant inhibition (Mogl); for inhibition at 11210 g/ha: 11.21 kg/ha
Procedure: as §1, §2, §3, §4

Barnyardgrass [8] = assay: Pre-emergence herbicide test; conditions: Echinochloa crus-galli, read-out: % plant inhibition (Bygr); for inhibition at 11210 g/ha: 11.21 kg/ha
Procedure: as §1, §2, §3, §4

Yellow nutsedge [9] = assay: Pre-emergence herbicide test; conditions: Cyperus, read-out: % plant inhibition (Yens); for inhibition at 11210 g/ha: 11.21 kg/ha
Procedure: as §1, §2, §3, §4

Indian Mustard [10] = assay: Pre-emergence herbicide test; conditions: Brassica juncea, read-out: % plant inhibition (Inmu); for inhibition at 11210 g/ha: 11.21 kg/ha
Procedure: as §1, §2, §3, §4

Seedling johnsongrass [11] = assay: Post-emergence herbicide test; conditions: Sorghum halepense, read-out: % plant inhibition (Sejg); for inhibition at 11210 g/ha: 11.21 kg/ha
Description: (§5) Topsoil is placed in aluminum pans having holes in the bottom and compacted to a depth of 0.95 to 1.27 cm from the top of the pan. A predetermined number of seeds of each of several dicotyledonous and monocotyledonous annual plant species and/or vegetative propagules for the perennial plant species are placed on the soil and pressed into the soil surface. The seeds and/or vegetative propagules are covered with soil and leveled. The pans are then placed on a bench in the greenhouse and watered from below as needed. After the plants reach the desired age (two to three weeks), each pan, is removed individually to a spraying chamber and sprayed by means of an atomizer, operating at a spray pressure of 170.3 kPa (10 psig) at the application rates noted. In the spray solution is an amount of an emulsifying agent mixture to give a spray solution or suspension which contains about 0.4% by volume of the emulsifier. The spray solution or suspension contains a sufficient amount of the candidate chemical in order to give application rates of the active ingredient corresponding to those shown in Tables 8 and 8A, while applying a total amount of solution or suspension equivalent to 1870 L/Ha (200 gallons/acre). The pans were returned to the greenhouse and watered as before and the injury to the plants as compared to the control is observed at approximately 10-14 days (usually 11 days) and in some instances observed again at 24-28 days (usually 25 days) after spraying. The post-emergent herbicidal activity shown in these tables is the percent inhibition of each plant species.

Cocklebur [12] = assay: Post-emergence herbicide test; conditions: Xanthium strumarium, read-out: % plant inhibition (Cobu); for inhibition at 11210 g/ha: 11.21 kg/ha
Description: as §5

Downy Brome [13] = assay: Post-emergence herbicide test; conditions: Bromus tectorum, read-out: % plant inhibition (Dobr); for inhibition at 11210 g/ha: 11.21 kg/ha
Description: as §5

Velvetleaf [14] = assay: Post-emergence herbicide test; conditions: Abutilon theophrasti, read-out: % plant inhibition (Vele); for inhibition at 11210 g/ha: 11.21 kg/ha
Description: as §5

Wild buckwheat [15] = assay: Post-emergence herbicide test; conditions: Fallopia convolvulus, read-out: % plant inhibition (Wibw); for inhibition at 11210 g/ha: 11.21 kg/ha
Description: as §5

Annual bluegrass [16] = assay: Post-emergence herbicide test; conditions: read-out: % plant inhibition (Anbg); for inhibition at 11210 g/ha: 11.21 kg/ha
Description: as §5

Morningglory [17] = assay: Post-emergence herbicide test; conditions: Ipomoea, read-out: % plant inhibition (Mogl); for inhibition at 11210 g/ha: 11.21 kg/ha
Description: as §5

Barnyardgrass [18] = assay: Post-emergence herbicide test; conditions: Echinochloa crus-galli, read-out: % plant inhibition (Bygr); for inhibition at 11210 g/ha: 11.21 kg/ha
Description: as §5

Yellow nutsedge [19] = assay: Post-emergence herbicide test; conditions: Cyperus, read-out: % plant inhibition (Yens); for inhibition at 11210 g/ha: 11.21 kg/ha
Description: as §5

Indian Mustard [20] = assay: Post-emergence herbicide test; conditions: Brassica juncea, read-out: % plant inhibition (Inmu); for inhibition at 11210 g/ha: 11.21 kg/ha
Description: as §5

Compound	inhibition at 11210 g/ha (Seedling johnsongrass [1]) [%]	inhibition at 11210 g/ha (Cocklebur [2]) [%]	inhibition at 11210 g/ha (Downy Brome [3]) [%]	inhibition at 11210 g/ha (Velvetleaf [4]) [%]	inhibition at 11210 g/ha (Wild buckwheat [5]) [%]	inhibition at 11210 g/ha (Annual bluegrass [6]) [%]	inhibition at 11210 g/ha (Morningglory [7]) [%]	inhibition at 11210 g/ha (Barnyardgrass [8]) [%]	inhibition at 11210 g/ha (Yellow nutsedge [9]) [%]	inhibition at 11210 g/ha (Indian Mustard [10]) [%]	inhibition at 11210 g/ha (Seedling johnsongrass [11]) [%]	inhibition at 11210 g/ha (Cocklebur [12]) [%]	inhibition at 11210 g/ha (Downy Brome [13]) [%]	inhibition at 11210 g/ha (Velvetleaf [14]) [%]	inhibition at 11210 g/ha (Wild buckwheat [15]) [%]	inhibition at 11210 g/ha (Annual bluegrass [16]) [%]	inhibition at 11210 g/ha (Morningglory [17]) [%]	inhibition at 11210 g/ha (Barnyardgrass [18]) [%]	inhibition at 11210 g/ha (Yellow nutsedge [19]) [%]	inhibition at 11210 g/ha (Indian Mustard [20]) [%]	also measured
Cc1cc(-c2c(Cl)c(C(F)F)nn2C)c(F)cc1Cl [Compound 64]	80	10	90	100	100	90	80	80	10	100	20	20	0	60	80	20	60	30	0	20	–
Cn1nc(C(F)(F)F)c(Cl)c1-c1ccc(Cl)cc1 [Compound 66]	90	20	60	90	90	50	100	10	0	50	80	0	30	50	100	0	70	20	0	30	–
Cn1nc(C(F)(F)Cl)c(Cl)c1-c1ccc(Cl)cc1 [Compound 67]	40	0	40	80	90	40	90	0	0	50	80	20	40	80	100	20	70	40	20	40	–
Cn1nc(C(F)(F)F)c(Cl)c1-c1cc(F)ccc1F [Compound 69]	0	0	0	50	0	0	30	0	0	0	0	0	0	10	0	0	10	0	0	0	–
COc1cc(F)c(-c2c(Cl)c(C(F)(F)F)nn2C)cc1F [Compound 71]	40	0	10	60	70	90	30	0	0	30	0	30	0	20	40	0	20	0	0	20	–
COc1cc(-c2c(Cl)c(C(F)(F)F)nn2C)c(F)cc1[N+](=O)[O-] [Compound 72]	60	20	20	90	90	20	40	60	0	90	10	60	20	90	90	10	30	50	10	30	–
COc1cc(-c2c(Cl)c(C(F)(F)F)nn2C)c(F)cc1N [Compound 73]	0	0	0	50	0	0	0	0	0	20	0	10	0	20	20	0	0	0	0	20	–
COc1cc(-c2c(Cl)c(C(F)(F)F)nn2C)c(F)cc1Cl [Compound 74]	–	–	–	–	–	–	–	–	–	–	–	–	–	–	–	–	–	–	–	–	inhibition at 1120 g/ha (Seedling johnsongrass [1]; 1.12 kg/ha): 60%; inhibition at 1120 g/ha (Cocklebur [2]; 1.12 kg/ha): 0%; inhibition at 1120 g/ha (Downy Brome [3]; 1.12 kg/ha): 20%; inhibition at 1120 g/ha (Velvetleaf [4]; 1.12 kg/ha): 90%; inhibition at 1120 g/ha (Wild buckwheat [5]; 1.12 kg/ha): 100%; inhibition at 1120 g/ha (Annual bluegrass [6]; 1.12 kg/ha): 10%; inhibition at 1120 g/ha (Morningglory [7]; 1.12 kg/ha): 50%; inhibition at 1120 g/ha (Barnyardgrass [8]; 1.12 kg/ha): 20%; inhibition at 1120 g/ha (Yellow nutsedge [9]; 1.12 kg/ha): 0%; inhibition at 1120 g/ha (Indian Mustard [10]; 1.12 kg/ha): 90%; inhibition at 1120 g/ha (Seedling johnsongrass [11]; 1.12 kg/ha): 10%; inhibition at 1120 g/ha (Cocklebur [12]; 1.12 kg/ha): 20%; inhibition at 1120 g/ha (Downy Brome [13]; 1.12 kg/ha): 10%; inhibition at 1120 g/ha (Velvetleaf [14]; 1.12 kg/ha): 40%; inhibition at 1120 g/ha (Wild buckwheat [15]; 1.12 kg/ha): 90%; inhibition at 1120 g/ha (Annual bluegrass [16]; 1.12 kg/ha): 0%; inhibition at 1120 g/ha (Morningglory [17]; 1.12 kg/ha): 20%; inhibition at 1120 g/ha (Barnyardgrass [18]; 1.12 kg/ha): 10%; inhibition at 1120 g/ha (Yellow nutsedge [19]; 1.12 kg/ha): 10%; inhibition at 1120 g/ha (Indian Mustard [20]; 1.12 kg/ha): 40%
